From article PMC4841536, “Characterization of the Anti-HCV Activities of the New Cyclophilin Inhibitor STG-175” (PLoS ONE, 2016)
pEC50, pIC50: −log10 of the molar value. Where “and” joins values, the source holds several entries; their conditions need not be identical. Identical values can stand only once. Like-named read-outs stand apart in the source and are kept apart here.

What was measured:
[1] = system: subgenomic Con1 (GT1b) replicon in Huh-7 cells; assay type: cell-based, hepatitis C virus; settings: for passages until development of HCV resistance, DAA alone ("instead of" comparison): compared with combination; for passage at which resistant variants emerged (CypI comparison): Fig 3C
Description: Huh-7 cell expressing subgenomic Con1 (GT1b) replicon were seeded in a 10 cm dish at a density of 3 × 10^5 cells per culture flask in complete DMEM (with G418) with STG-175 or selected drugs. Cells were grown until they reached 90% confluence, trypsinized and re-seeded at the same cell concentration in a new 10-cm dish with the same drug concentration. Cells were passaged 22 times in the presence of drugs. At each passage, sample of cells were collected, RNA extracted according to the manufacturer's instructions and analyzed by RT-PCR for HCV RNA levels.
(§1) Fig 3 Replicon clearance, replication rebound and resistance analyses. […] Then drugs were removed to allow viral replication rebound to occur. At each passage, samples of cells were collected, RNA extracted and analyzed by RT-PCR for HCV RNA levels. B. Emergence of resistance: Con1 replicon Huh-7 cells were passaged 22 times in the absence or presence of STG-175 or selected DAAs. At each passage, sample of cells were collected, RNA extracted and analyzed by RT-PCR for HCV RNA levels. C. […] Data are expressed as number of HCV RNA copies per cell. […] Data are expressed as mean of relative light units and calculated EC50s are presented. […] E. Degree of resistance of D320E and Y321N Con1 variants: Left panel. Wild-type (WT), D320E and D320/Y321N NS5A Con1 RNA were electroporated into Huh7.5.1 cells and replication monitored over 8 days by quantifying the levels of intracellular HCV RNA. Right panel. Same as just above except that increasing concentrations of STG-175 were added at the time of the electroporation. […] STG-175 is taken as the substance from the printed x-axis title 'STG-175 in Log nM'.
We then examined the development of resistance to STG-175. GT1b Con1 sub-genomic replicon cells were grown in the presence of STG-175 (0.25 and 1 μM), telaprevir (2.5 and 10 μM), boceprevir (2.5 and 10 μM), daclatasvir 100 pM and 1 nM) or a combination of STG-175 (0.25 μM) with either telaprevir (2.5 μM), boceprevir (2.5 μM) or daclatasvir (100 pM) for 22 successive passages. At each passage, fresh drug was added and a sample of cells was taken to quantify HCV RNA levels by RT-qPCR.

[2] = system: HCV GT4a subgenomic replicon ED43/SG-Feo; set-up: method as in PMID 24687498; settings: cited from earlier work
[3] = system: D320E NS5A Con1 GT1b replicon; test: microbe, parasite or virus in culture; assay type: cell-based, hepatitis C virus; settings: Hepatitis C virus, GT1B
Description: (§2) The GT1b subgenomic firefly luciferase reporter replicon pFK-I389/NS3–3 was provided by R. Bartenschlager. The GT1B subgenomic NS3, NS5A and NS5B mutants were created via homologous recombination using the In-Fusion HD Cloning kit (Clontech) as we described previously. […] The in vitro transcription of wild-type and mutant Con1 RNA was accomplished using the T7 MEGAscript kit (Ambion) by following the manufacturer’s instructions. In vitro-transcribed RNAs were introduced into Huh7.5.1 cells by electroporation. Trypsinized cells were washed twice and resuspended in phosphate-buffered saline (PBS) (calcium-free and magnesium-free) at 1x 10^7 cells per ml. Ten micrograms of RNA for each mutant was mixed with 0.4 mL of cells in a 4-mm cuvette, and a Bio-Rad Gene Pulser system was used to deliver a single pulse at 0.27 kV, 100 ohms, and 960 μF. Cells were then plated in 12-well dishes. RNA transfection efficiency and HCV subgenomic replication were assessed by reverse transcription-quantitative PCR (RT-qPCR) and presented as genome equivalents (GE) per microgram of total RNA as described previously. We measured by RT-qPCR the replication of wild-type, STG-175-, NS5Ai-, NS3i- and NS5Bi-resistant mutants in the presence of increasing concentrations of SGT-175, daclatasvir, telaprevir, boceprevir and sofosbuvir over a period of 8 days.
(§3) D320E and D320E/Y321N NS5A substitutions were introduced into wild-type Con1 GT1 replicon as we described previously. Con1-NS5A-D320E, and Con1-NS5A-D320E/Y321N were generated using the following forward and reverse phosphorylated (p) primer sets, respectively: (p)[…] and (p)[…], and (p)[…] and (p)[…]. PCR products were circularized with Quick T4 DNA ligase (NEB) for 5 min and transformed into NEB 10-beta competent cells. The NS5A gene was sequenced to confirm the introduced substitutions.
as §1
(§4) To determine whether the D320E and Y321N substitutions truly render HCV resistant to STG-175, they were introduced into wild-type Con1 replicon as we described previously. Introduction of the substitutions was verified by sequencing.

[4] = system: D320E/Y321N NS5A Con1 GT1b replicon; test: microbe, parasite or virus in culture; assay type: cell-based, hepatitis C virus; settings: Hepatitis C virus, GT1B
Description: as §2, §3, §1, §4

[5] = system: wild-type Con1 GT1b replicon; test: Electroporated Con1 RNA replication in Huh7.5.1 cells (RT-qPCR), wild-type; assay type: cell-based; settings: Hepatitis C virus
Description: as §2, §1
To determine whether the D320E and Y321N substitutions truly render HCV resistant to STG-175, they were introduced into wild-type Con1 replicon as we described previously. Introduction of the substitutions was verified by sequencing. In vitro-transcribed wild-type, D320E and D320E/Y321N HCV RNAs were then electroporated into Huh7.5.1 cells and viral replication assessed by RT-qPCR and presented as GE per microgram of total RNA as we described previously. […] We then analyzed the replication of wild-type, D320E and D320E/Y321N in the presence of increasing concentrations of SGT-175 over a period of 8 days.
Fig 5 Cross-resistance analyses.

Human recombinant CypD = target: T1, Human recombinant CypD (Homo sapiens, UniProt P30405); test: α-chymotrypsin-coupled PPIase assay, CypD isomerase activity; assay type: biochemical; settings: 5°C, 10 concentrations 0.05–1000 nM
T1 construct: purchased Atgen
T1 sequence (P30405 30-207): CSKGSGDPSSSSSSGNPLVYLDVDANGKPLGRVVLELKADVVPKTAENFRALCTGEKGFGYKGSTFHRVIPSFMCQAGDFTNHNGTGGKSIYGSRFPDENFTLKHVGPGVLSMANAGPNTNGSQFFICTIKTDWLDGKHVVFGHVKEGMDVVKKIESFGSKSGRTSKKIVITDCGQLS
Description: (§5) Inhibition of CypA and CypD isomerase activities were quantified using a α-chymotrypsin-coupled assay adapted to a 96-well plate format. Human recombinant CypA or CypD (Atgen) was dissolved to 10 nM in PPIases buffer (50 mM Hepes, 100 mM NaCl, 1 mg/ml bovine serum albumin, 1 mg/ml α-chymotrypsin; pH 8). Succinyl-AAPF-pNA peptide substrate (Sigma) was dissolved to 3.2 mM in LiCl/trifluoroethanol. Each CypI was prepared at 10 concentrations in DMSO, then diluted into CypA/D PPIase buffer to 0.05–1000 nM. Incubations were performed at 5°C. Ninety five μL of reaction mix was added to 5 μL peptide in 96-wells and OD405 nm measured at 6-sec intervals for 6 min using a Biotek Synergy H4 plate reader. Data were fitted with Graphpad Prism 6.0 to acquire first-order rate constants, which were calculated by subtracting the rate constant from uncatalyzed reactions (no CypA/D). The catalytic rate constants were plotted as a function of inhibitor concentration to obtain IC50s.
(§6) The inhibition of the isomerase activities of CypA and CypD were measured with 10 increasing concentrations of STG-175 to quantify IC50 values.
Fig 1 Anti-PPIase and immunosuppressive activities of STG-175. A. Structures of cyclophilin inhibitors. Inhibition of CypA (B) and CypD (C) isomerase activities were assessed using the α-chymotrypsin-coupled assay. Each test compound was prepared at 10 concentrations (0.05–1000 nM). All solutions were equilibrated, and reactions conducted at 5°C. Reactions were initiated by mixing 95 μL reaction mix with 5 μL of the peptide to be cleaved and measuring OD405 nm at 6-sec intervals for 6 min. […] Enzyme catalyzed rate constants were calculated by subtracting the rate constant from uncatalyzed reactions (no CypA/D), and catalytic rate constants plotted as a function of inhibitor concentration to obtain IC50s. […] D. IL-2 promoter activation upon T-cell stimulation was determined using an engineered Jurkat T-cell line, which expresses betagalactosidase. […] The Y-axis values are expressed as percentage of activity. Data expressed as EC50s are representative of two independent experiments.

[6] = system: IL-2 promoter activation in Jurkat T-cell line; test: In vitro assay for immunosuppression: IL-2 promoter activation in engineered Jurkat T-cell line (betagalactosidase); assay type: cell-based; settings: Homo sapiens; Jurkat cells activated with PMA 10 ng/mL, 24 h; read-out: IC50, inhibition of IL-2 production (immunosuppressive activity)
Description: IL-2 promoter activation upon T-cell stimulation was determined using an engineered Jurkat T-cell line, which expresses betagalactosidase when exposed to chemical non-specific factors like […] (PMA) and phytohematogglutinin (PHA) as described previously. DMSO or STG-175 were added together with PMA (10 ng/mL) to 1 million of Jurkat cells (triplicates). Betagalactosidase activity in cell lysates was quantified by fluorescence (460 nm) after 24 h.
Fig 1 Anti-PPIase and immunosuppressive activities of STG-175. A. Structures of cyclophilin inhibitors. Inhibition of CypA (B) and CypD (C) isomerase activities were assessed using the α-chymotrypsin-coupled assay. Each test compound was prepared at 10 concentrations (0.05–1000 nM). All solutions were equilibrated, and reactions conducted at 5°C. Reactions were initiated by mixing 95 μL reaction mix with 5 μL of the peptide to be cleaved and measuring OD405 nm at 6-sec intervals for 6 min. Data were fitted with Graphpad Prism 6.0 to obtain first-order rate constants. Enzyme catalyzed rate constants were calculated by subtracting the rate constant from uncatalyzed reactions (no CypA/D), and catalytic rate constants plotted as a function of inhibitor concentration to obtain IC50s. […] D. IL-2 promoter activation upon T-cell stimulation was determined using an engineered Jurkat T-cell line, which expresses betagalactosidase. Jurkat cells (1 million) were activated with PMA (10 ng/mL). […] The Y-axis values are expressed as percentage of activity. Data expressed as EC50s are representative of two independent experiments.
The formation of this trimolecular complex inhibits T cell proliferation by blocking the signaling pathway leading to IL-2 production upon T-cell stimulation. The immunosuppressive activity of STG-175 was evaluated by inhibition of the IL-2 production in Jurkat cells.

Human recombinant CypA = target: T2, Human recombinant CypA (Homo sapiens, UniProt P62937); test: α-chymotrypsin-coupled PPIase assay, CypA isomerase activity; assay type: biochemical; settings: 5°C, 10 concentrations 0.05–1000 nM; read-out: IC50, neutralization of the isomerase activity of CypA
T2 construct: purchased Atgen
T2 sequence (P62937 whole entry): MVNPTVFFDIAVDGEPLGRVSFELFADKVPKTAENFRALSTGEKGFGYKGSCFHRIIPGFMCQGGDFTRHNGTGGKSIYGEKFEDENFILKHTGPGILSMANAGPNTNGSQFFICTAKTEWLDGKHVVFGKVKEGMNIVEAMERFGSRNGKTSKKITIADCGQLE
Description: as §5, with “The catalytic rate constants were plotted as a function of inhibitor concentration to obtain IC50s.” left out
as §6
Fig 1 Anti-PPIase and immunosuppressive activities of STG-175. […] Inhibition of CypA (B) and CypD (C) isomerase activities were assessed using the α-chymotrypsin-coupled assay. […] D. IL-2 promoter activation upon T-cell stimulation was determined using an engineered Jurkat T-cell line, which expresses betagalactosidase. […] The Y-axis values are expressed as percentage of activity. […]

[7] = Huh-7.5.1, 192 h, read-out: EC50 D320E NS5A
[8] = Huh-7.5.1, 192 h, read-out: EC50 D320E/Y321N NS5A
[9] = Huh-7.5.1, 192 h, read-out: EC50 GT1b WT

SMILES | passage at which resistance began ([1]; 2.5 μM) [passage] | passage at which resistance began ([1]; 10 μM) [passage] | passages until development of HCV resistance, DAA alone ("instead of" comparison) [1] [passages] | pEC50 [3, 7] | pEC50 [4, 8] | pEC50 [5, 9] | pIC50 [6] | further results
CC(C)(C)NC(=O)N[C@H](C(=O)N1C[C@H]2[C@@H]([C@H]1C(=O)NC(CC1CCC1)C(=O)C(N)=O)C2(C)C)C(C)(C)C (stereo partly drawn) [boceprevir] | 7 | 10 | 7 | 7.03 | 6.89 | 6.86 |  | activity against GT4a [2]: inactive
CC(C)OC(=O)[C@H](C)N[P@](=O)(OC[C@H]1O[C@@H](n2ccc(=O)[nH]c2=O)[C@](C)(F)[C@@H]1O)Oc1ccccc1 [sofosbuvir, reference compound] |  |  |  | 6.92 | 6.95 | 6.75 |  | 
C/C=C/C[C@@H](C)[C@@H](O)[C@H]1C(=O)N[C@@H](CC)C(=O)N(C)[C@H](SCCN(C)C)C(=O)N(C)[C@@H](CC(C)(C)O)C(=O)N[C@@H](C(C)C)C(=O)N(C)[C@@H](CC(C)C)C(=O)N[C@@H](C)C(=O)N[C@H](C)C(=O)N(C)[C@@H](CC(C)C)C(=O)N(C)[C@@H](CC(C)C)C(=O)N(C)[C@@H](C(C)C)C(=O)N1C [SCY-635] |  |  |  |  |  |  | 7.41 | pIC50 (Human recombinant CypD; IC50, neutralization of the isomerase activity of CypD): 8.15 and 8.14
COC(=O)N[C@H](C(=O)N1CCC[C@H]1c1nc(-c2ccc(-c3ccc(-c4c[nH]c([C@@H]5CCCN5C(=O)[C@@H](NC(=O)OC)C(C)C)n4)cc3)cc2)c[nH]1)C(C)C [daclatasvir] |  |  | 4 |  |  |  |  | passage at which resistance began ([1]; 100 pM): 4 passage; passage at which resistance began ([1]; 1 nM): 5 passage; pEC50 ([3]; Huh-7.5.1, read-out: EC50 D320E replicon): 10.49; pEC50 ([4]; Huh-7.5.1, read-out: EC50 D320E/Y321N replicon): 10.41; pEC50 ([5]; Huh-7.5.1, read-out: EC50 wild-type replicon): 10.37
CCC[C@H](NC(=O)[C@@H]1[C@H]2CCC[C@H]2CN1C(=O)[C@@H](NC(=O)[C@@H](NC(=O)c1cnccn1)C1CCCCC1)C(C)(C)C)C(=O)C(=O)NC1CC1 [telaprevir] | 7 | 10 | 6 | 6.64 | 6.50 | 6.54 |  | 
C/C=C/C[C@@H](C)[C@@H](O)[C@H]1C(=O)N[C@@H](CC)C(=O)N(C)[C@H](C)C(=O)N(CC)[C@@H](C(C)C)C(=O)N[C@@H](C(C)C)C(=O)N(C)[C@@H](CC(C)C)C(=O)N[C@@H](C)C(=O)N[C@H](C)C(=O)N(C)[C@@H](CC(C)C)C(=O)N(C)[C@@H](CC(C)C)C(=O)N(C)[C@@H](C(C)C)C(=O)N1C [ALV, alisporivir] |  |  |  |  |  |  | 7.07 | pIC50 (Human recombinant CypA): 8.77; passage at which resistant variants emerged (CypI comparison) ([1]; 0.25 μM of drug selection): 15 passage; passage at which resistance began ([1]; 1 μM drug pressure, first account (Fig 3B)): 16 passage; passage at which resistant variants emerged (CypI comparison) ([1]; 1 μM of drug selection): 17 passage; pIC50 (Human recombinant CypD; read-out: IC50, neutralization of the isomerase activity of CypD): 8.47
